Each structure is given as a SMILES string.

The nature of data set [1]: Stability of the compounds (stated in words, no method given). The conditions noted are these: qualitative statement; no conditions given. In kind it is physicochemical.
The target of another data set is HPPK (Escherichia coli, UniProt P26281). As to the kind of experiment: Fluorometric titration binding study with HPPK. The conditions noted are these: room temperature; 100 mM Tris-HCl, pH 8.3; fluorescence titration, nonlinear least-squares analysis. On the procedure:
Binding studies were carried out at room temperature. Protein (HPPK) and ligand stock solutions were made in 100 mM Tris-HCl, pH 8.3, and their concentrations were determined spectrophotometrically using the following extinction coefficients: 21600 M^−1 cm^−1 at 280 nm for HPPK, 7000 M^−1 cm^−1 at 366 nm for the pteridone bisubstrate inhibitors such as compound 13, and 7124 M^−1 cm^−1 at 380 nm for the tetrahydropteridine bisubstrate inhibitors such as 28. A 3-mL dilute inhibitor solution in a fluorometric cuvette was titrated with the protein stock solution. Fluorescence was measured on a Horiba Jobin Yvon FluoroMax-4 fluorometer. The excitation wavelength and slit were 364-380 and 2-3 nm, respectively, and the emission wavelength and slit were 450-482 and 2-5 nm, respectively. […] For these HPPK preparations, a control experiment, in which a 3-mL buffer solution was titrated with the protein solution, was performed. The control data was subtracted from the titration data. The corrected titration data was then analyzed by nonlinear least-squares regression using the software Origin and the equation:
[formula] where Fobs is the observed fluorescence, εf and εb are the fluorescence coefficients of the ligand in the free and protein-bound states, respectively, Lt is the total concentration of the ligand, and Et is the total concentration of HPPK. […]

HPPK, sequence (P26281 whole entry): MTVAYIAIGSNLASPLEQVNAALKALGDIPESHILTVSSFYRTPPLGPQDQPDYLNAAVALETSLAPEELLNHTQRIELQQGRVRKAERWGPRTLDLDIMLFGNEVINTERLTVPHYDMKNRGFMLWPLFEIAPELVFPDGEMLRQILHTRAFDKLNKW

For `CC1(C)Nc2nc(N)[nH]c(=O)c2N=C1C(=O)NCCN1CCC(SC[C@H]2O[C@@H](n3cnc4c(N)ncnc43)C(O)C2O)CC1` (stereo in doubt) [Compound 28, 2-Amino-7,7-dimethyl-4-oxo-3,4,7,8-tetrahydro-pteridine-6-carboxylic acid (2-{4-[5-(6-amino-purin-9-yl)-3,4-dihydroxy-tetrahydro-furan-2-ylmethylsulfanyl]-piperidin-1-yl}-ethyl)-amide], the Stability of compound result in data set [1] is “stable”. The same molecule yielded a Kd on HPPK of 330 nM.
In the same order, the values of `Nc1nc2ncc(CNCCN3CCC(SC[C@H]4O[C@@H](n5cnc6c(N)ncnc65)C(O)C4O)CC3)nc2c(=O)[nH]1` (stereo in doubt) [Compound 13, 2-Amino-6-[(2-{4-[5-(6-amino-purin-9-yl)-3,4-dihydroxy-tetrahydro-furan-2-ylmethylsulfanyl]-piperidin-1-yl}-ethylamino)-methyl]-3H-pteridin-4-one] are “stable” and 590 nM.
